Assays:
Format in all cases: functional
[1] = Concentration ratio of beta-2 (EC50) to beta3 (EC50)
[2] = Concentration ratio of beta-1 (EC50) to beta3 (EC50)
[3] = molecular target: Beta-1 adrenergic receptor (Rattus norvegicus) (UniProt P18090); experiment: Increase in BPM in isolated rat atria.
[4] = molecular target: Beta-2 adrenergic receptor (Rattus norvegicus, UniProt P10608); experiment: Agonistic activity towards beta-2 adrenoceptor. Mean concentration required to produce 50% inhibition of uterine contraction
Sequence of Beta-2 adrenergic receptor (P10608 whole entry): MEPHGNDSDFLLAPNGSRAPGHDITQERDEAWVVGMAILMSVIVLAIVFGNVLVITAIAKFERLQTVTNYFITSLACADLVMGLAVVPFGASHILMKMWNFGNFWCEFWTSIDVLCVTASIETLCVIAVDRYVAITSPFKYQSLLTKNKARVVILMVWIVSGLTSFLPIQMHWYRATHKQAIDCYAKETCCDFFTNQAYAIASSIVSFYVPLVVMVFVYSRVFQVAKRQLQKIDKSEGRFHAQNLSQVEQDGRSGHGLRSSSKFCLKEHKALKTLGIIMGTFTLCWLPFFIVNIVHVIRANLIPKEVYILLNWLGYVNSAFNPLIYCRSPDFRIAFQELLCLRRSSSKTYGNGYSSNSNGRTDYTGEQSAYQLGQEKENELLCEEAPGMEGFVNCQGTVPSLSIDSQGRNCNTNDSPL

[5] = Concentration ratio of beta-1 (EC50) to beta-3 (EC50)
[6] = Concentration ratio of beta2 (EC50) to […]
[7] = species on record: Rattus norvegicus; experiment: In vitro concentration required to produce 50% relaxation of rat detrusor
[8] = system: Rattus norvegicus; experiment: In vivo dose required to lower the intrabladder pressure of the anesthetized rat by 50% over that before compound administration
[9] = species on record: Mustela putorius furo; experiment: In vitro concentration required to produce 50% relaxation of ferret detrusor

Sequence of Beta-1 adrenergic receptor (Rattus norvegicus) (P18090 whole entry, looked up): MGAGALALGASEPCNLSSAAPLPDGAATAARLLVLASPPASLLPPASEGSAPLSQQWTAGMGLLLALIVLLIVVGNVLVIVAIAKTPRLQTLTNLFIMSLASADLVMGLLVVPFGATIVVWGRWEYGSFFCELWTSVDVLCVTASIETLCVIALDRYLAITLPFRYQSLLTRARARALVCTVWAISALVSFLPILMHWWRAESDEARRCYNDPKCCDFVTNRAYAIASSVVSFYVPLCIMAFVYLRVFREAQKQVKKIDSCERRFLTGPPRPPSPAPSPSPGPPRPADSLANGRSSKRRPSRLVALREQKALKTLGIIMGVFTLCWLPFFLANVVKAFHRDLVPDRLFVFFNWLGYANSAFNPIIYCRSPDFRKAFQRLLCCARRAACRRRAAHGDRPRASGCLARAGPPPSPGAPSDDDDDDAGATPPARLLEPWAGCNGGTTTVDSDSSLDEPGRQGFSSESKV

Row | SMILES | -Log EC20 [3] | IC50 [4] | Selectivity [1] | Selectivity [2] | further results
1 | C[C@H](NCCc1cc(Cl)c(NCC(=O)O)cc1Cl)[C@H](O)c1ccc(O)cc1 | 5.89 | 1290 nM | 21 | 21 | –
2 | C[C@H](NCCc1ccc(NC(C)(C)C(=O)O)cc1Cl)[C@H](O)c1ccc(O)cc1 | 6.59 | 1410 nM | 250 | – | Selectivity [5]: 46
3 | C[C@H](Cc1ccc2c(c1)OC(C(=O)O)(C(=O)O)O2)NC[C@H](O)c1cccc(Cl)c1 | 4.77 | – | – | – | –
4 | C[C@H](NCCc1ccc(N(C)CC(=O)O)cc1)[C@H](O)c1ccc(O)cc1 | 5.47 | 1580 nM | 31 | 65 | –
5 | CC(NCCc1ccc(O)cc1)C(O)c1ccc(O)cc1 (configuration not stated) [RITODRINE] | 6.8 | 24 nM | – | – | –
6 | C[C@H](NCCc1cc(Cl)c(N(C)CC(=O)O)c(Cl)c1)[C@H](O)c1ccc(O)cc1 | > 4 | – | > 625 | > 625 | -Log IC50 [4]: > 4
7 | C[C@H](NCCc1ccc(N(CC(=O)O)CC(=O)O)cc1)[C@H](O)c1ccc(O)cc1 | 4.57 | 282 nM | – | – | –
8 | C[C@H](NCCc1ccc(NC(C)(C)C(=O)O)cc1)[C@H](O)c1ccc(O)cc1 | 4.96 | 11000 nM | – | – | –
9 | C[C@H](NCCc1ccc(N(CC(=O)O)Cc2ccccc2)cc1)[C@H](O)c1ccc(O)cc1 | 6.82 | 251 nM | – | – | –
10 | C[C@H](NCCc1cc(Br)c(NCC(=O)O)c(Br)c1)[C@H](O)c1ccc(O)cc1 | 4.72 | 2570 nM | 32 | 235 | –
11 | C[C@H](NCCc1ccc(NCC(=O)O)cc1)[C@H](O)c1ccc(O)cc1 | 5.89 | 646 nM | 27 | 54 | –
12 | CC(C)NCC(O)c1ccc(O)c(O)c1 (configuration not stated) [ISOPROTERENOL] | – | – | – | – | EC50 [7]: 10 nM; ED50 [8]: 0.0006 mg/kg
13 | C[C@H](Cc1ccc(OCC(=O)O)cc1)NC[C@H](O)c1cccc(Cl)c1 | – | 9.12 nM | – | – | –

The next lines start with results.

Row | -Log EC20 [3] | IC50 [4] | SMILES | Selectivity [1] | Selectivity [2] | further results
14 | 6.82 | 1700 nM | C[C@H](NCCc1ccc(NCC(=O)O)c(Cl)c1Cl)[C@H](O)c1ccc(O)cc1 | 3.7 | 0.33 | –
15 | 5.27 | 2190 nM | C[C@H](NCCc1ccc(NCC(=O)O)c(I)c1)[C@H](O)c1ccc(O)cc1 | 2.7 | 6.6 | –
16 | 6.96 | 61.7 nM | C[C@H](NCCc1ccc(NCC(=O)O)cc1Cl)[C@H](O)c1ccc(O)cc1 | 8.6 | 15 | –
17 | 5.57 | 3310 nM | C[C@H](NCCc1ccc(NCC(=O)O)c(Cl)c1)[C@H](O)c1ccc(O)cc1 | – | 2900 | Selectivity [6]: 3550
18 | 4.6 | – | C[C@H](NCCc1ccc(N(C)CC(=O)O)c(Cl)c1)[C@H](O)c1ccc(O)cc1 | > 9090 | 2270 | -Log IC50 [4]: > 4
19 | 5.1 | 1410 nM | C[C@H](NCCc1ccc(NCC(=O)O)c(Br)c1)[C@H](O)c1ccc(O)cc1 | 2.5 | 14 | –
20 | 4.54 | 14100 nM | C[C@H](NCCc1cc(Cl)c(NCC(=O)O)c(Cl)c1)[C@H](O)c1ccc(O)cc1 | 1000 | 2070 | EC50 [7]: 191 nM; ED50 [8]: 0.048 mg/kg; EC50 [9]: 14.1 nM
